Test results reported in patent publication US20240374581A1, “SALT TYPES OF TRICYCLIC TETRAHYDRO ISOQUINOLINE DERIVATIVE” (JIANGSU HENGRUI PHARMACEUTICALS CO., LTD., priority 2021, published 2024).

Assays:
[1] = Hygroscopicity study (DVS); type: physicochemical; conditions: 25° C.; for Hygroscopicity grade: 0% RH-80.0% RH; for Hygroscopicity 0% RH-80.0% RH / Hygroscopicity 0.0% RH-95.0% RH: DVS
Description: DVS refers to dynamic vapor sorption: The measurement was conducted on SMS DVS Advantage; at 25° C., the humidity was changed as follows: 50%-95%-0%-95%-50%, in steps of 10% (5% for the last step) (specific humidity ranges are shown in corresponding patterns, and those listed here were used in most cases); the criterion was dm/dt≤0.002%.
The measurement was conducted with a Surface Measurement Systems intrinsic at 25° C., starting from 50% humidity in humidity range of 0%-95%, in steps of 10%; the criterion was dM/dT≤0.002% and TMAX of 360 min in two cycles.

[2] = Long-term/accelerated stability; type: physicochemical; conditions: for Crystal form: up to 3 months; for physical and chemical stability (conclusion): long-term/accelerated study for 3 months
[3] = Influencing factor stability study; conditions: for physical and chemical stability (conclusion): influencing factors

## O=S(=O)(O)O.[2H]C1([2H])Oc2cc3c(cc2O1)[C@@H](c1ccc(NC2CN(CCCF)C2)cn1)N(CC(F)(F)CO)[C@H](C)C3 [Crystal form A of sulfate]
[1]
  Hygroscopicity grade: hygroscopic
  Crystal form after DVS: Deliquescence
  Hygroscopicity 0% RH-80.0% RH: 13.3%
  Hygroscopicity 0.0% RH-95.0% RH: 44.1%
[1]; listed as crystal form A
  Crystal form after DVS: deliquesced
[2]; 25° C./60% RH
  Purity (%) 1 month: 98.9%
  Purity (%) 2 months: 98.7%
  Purity (%) 3 months: 98.8%
  Purity (%) 7 days: 99.0%
  Purity (%) 14 days: 98.9%
  Purity (%) Initial: 98.9%
  Crystal form: Unchanged
[2]; 40° C./75% RH
  Purity (%) 1 month: 98.7%
  Purity (%) 2 months: 98.2%
  Purity (%) 3 months: 98.1%
  Purity (%) 7 days: 99.2%
  Purity (%) 14 days: 98.9%
  Purity (%) Initial: 98.9%
  Crystal form: Unchanged
[2]
  physical and chemical stability (conclusion): good physical and chemical stability
[3]; 40° C., 1 month
  Crystal form: Crystal form A
  Purity (%): 98.0%
[3]; 40° C., 5 days
  Crystal form: Crystal form A
  Purity (%): 98.8%
[3]; 40° C., 10 days
  Crystal form: Crystal form A
  Purity (%): 98.7%
[3]; 60° C., 1 month
  Crystal form: Crystal form A
  Purity (%): 97.3%
[3]; 60° C., 5 days
  Crystal form: Crystal form A
  Purity (%): 98.7%
[3]; 60° C., 10 days
  Crystal form: Crystal form A
  Purity (%): 98.6%
[3]; 75% RH and 92.5% RH, 30 days
  behaviour under the high-humidity conditions (conclusion): deliquesced
[3]; 75% RH, 1 month
  Crystal form: Deliquescence
  Purity (%): 94.8%
[3]; 75% RH, 5 days
  Crystal form: Deliquescence
  Purity (%): 97.8%
[3]; 75% RH, 10 days
  Crystal form: Deliquescence
  Purity (%): 96.6%
[3]; 92.5% RH, 1 month
  Crystal form: Deliquescence
  Purity (%): 95.1%
[3]; 92.5% RH, 5 days
  Crystal form: Deliquescence
  Purity (%): 98.1%
[3]; 92.5% RH, 10 days
  Crystal form: Deliquescence
  Purity (%): 97.3%
[3]; 4500 Lux, 1 month
  Crystal form: Crystal form A
  Purity (%): 92.9%
[3]; 4500 Lux, 5 days
  Crystal form: Crystal form A
  Purity (%): 97.4%
[3]; 4500 Lux, 10 days
  Crystal form: Crystal form A
  Purity (%): 96.0%
[3]; Initial, 0 days
  Crystal form: Crystal form A
  Purity (%): 98.9%
[3]; 30 days
  physical and chemical stability (conclusion): good physical and chemical stability under other conditions except the lighting condition

## O=P(O)(O)O.O=P(O)(O)O.O=P(O)(O)O.[2H]C1([2H])Oc2cc3c(cc2O1)[C@@H](c1ccc(NC2CN(CCCF)C2)cn1)N(CC(F)(F)CO)[C@H](C)C3 [Crystal form I of phosphate]
[1]
  Hygroscopicity grade: slightly
  Crystal form after DVS: Did not change
  Hygroscopicity 0% RH-80.0% RH: 1.2%
  Hygroscopicity 0.0% RH-95.0% RH: 7.1%
[1]; listed as crystal form I
  Crystal form after DVS: did not change
[2]; 25° C./60% RH
  Purity (%) 1 month: 99.3%
  Purity (%) 2 months: 99.3%
  Purity (%) 3 months: 99.2%
  Purity (%) 7 days: 99.4%
  Purity (%) 14 days: 99.5%
  Purity (%) Initial: 99.4%
  Crystal form: Unchanged
[2]; 40° C./75% RH
  Purity (%) 1 month: 99.3%
  Purity (%) 2 months: 99.2%
  Purity (%) 3 months: 99.0%
  Purity (%) 7 days: 99.5%
  Purity (%) 14 days: 99.5%
  Purity (%) Initial: 99.4%
  Crystal form: Unchanged
[2]
  physical and chemical stability (conclusion): good physical and chemical stability
[3]; 40° C., 1 month
  Crystal form: Crystal form I
  Purity (%): 99.1%
[3]; 40° C., 5 days
  Crystal form: Crystal form I
  Purity (%): 99.3%
[3]; 40° C., 10 days
  Crystal form: Crystal form I
  Purity (%): 99.1%
[3]; 60° C., 1 month
  Crystal form: Crystal form I
  Purity (%): 98.8%
[3]; 60° C., 5 days
  Crystal form: Crystal form I
  Purity (%): 99.1%
[3]; 60° C., 10 days
  Crystal form: Crystal form I
  Purity (%): 99.1%
[3]; 75% RH, 1 month
  Crystal form: Crystal form I
  Purity (%): 99.4%
[3]; 75% RH, 5 days
  Crystal form: Crystal form I
  Purity (%): 99.3%
[3]; 75% RH, 10 days
  Crystal form: Crystal form I
  Purity (%): 99.4%
[3]; 92.5% RH, 1 month
  Crystal form: Crystal form I
  Purity (%): 99.3%
[3]; 92.5% RH, 5 days
  Crystal form: Crystal form I
  Purity (%): 99.3%
[3]; 92.5% RH, 10 days
  Crystal form: Crystal form I
  Purity (%): 99.3%
[3]; 4500 Lux, 1 month
  Crystal form: Crystal form I
  Purity (%): 98.4%
[3]; 4500 Lux, 5 days
  Crystal form: Crystal form I
  Purity (%): 98.9%
[3]; 4500 Lux, 10 days
  Crystal form: Crystal form I
  Purity (%): 98.8%
[3]; Initial, 0 days
  Crystal form: Crystal form I
  Purity (%): 99.4%
[3]; 30 days
  physical and chemical stability (conclusion): good physical and chemical stability
